Values after ≈ are worked out from the molar mass of the structure shown.
What was measured:
[1] = test system: E. coli R+TEM (ß-Lactamase-Träger); assay: Serial dilution test in microtiter system (bacteriostasis, MIC); type: cell-based; conditions: Escherichia coli, read-out: Minimale Hemmkonzentration E.coli R+TEM
Protocol: (§1) Für die Untersuchungen wurde die Methode des Reihenverdünnungstestes im Mikrotitersystem angewandt. Die Prüfung der Substanzen auf Bakteriostase erfolgte in flüssigem Medium. Es wurde die Bakteriostasewirkung bei folgenden Konzentrationen untersucht: • 128, 64, 32, 16, 8, 4, 2, 1, 0,5, 0,25, 0,12, 0,06jug/ml. Es wurde ein Nährboden folgender Zusammensetzung benutzt: 10 g Pepton, 8 g Fleischextrakt-Oxoid, 3 g Natriumchlorid, 2 g sek. Natriumphosphat werden mit dest. Wasser auf […] aufgefüllt (pH 7,2 - 7,4). Lediglich bei der Testung gegen Streptokokken wurde 1 % Glucose hinzugefügt. Das Alter der Primärkulturen betrugt etwa 20 Stunden. Die Einstellung der Keimsuspension erfolgte am Photometer (nach "Eppendorf") (Reagenzglas-Durchmesser 14 mm, Filter 546nm) anhand der Trübung einer Bariumsulfat-Vergleichssuspension, die durch eine Bariumsulfat-Aufschwemmung erzeugt wurde, welche durch die Zugabe von 3,0 ml 1%ige Barium-chloridlösung in 97 ml 1%ige Schwefelsäure entstand. Nach der Einstellung wurden Streptococcus Aronson im Verhältnis 1:15 und die übrigen Testkeime im Verhältnis 1:1500 mit einer Kochsalzlösung weiter verdünnt.
(§2) 16 mg der jeweiligen Substanz wurden in 10 ml-Meßkolben eingewogen und mit dem Lösungsmittel bis zur Marke aufgefüllt. Die weitere Verdünnungsreihe wurde mit destilliertem Wasser oder dem jeweiligen Lösungsmittel hergestellt.
(§3) Die Vertiefungen der Mikrotiterplatten wurden mit 0,2 ml Nährmedium, 0,01 ml der entsprechenden Substanzverdünnung und mit einem Tropfen Keimsuspension (0,01 ml) beschickt und 18 bis 20 Stunden bei 37 °C bebrütet. Eine Lösungsmittelkontrolle wurde stets mitgeführt.
(§4) Die Ablesung wurde makroskopisch vorgenommen, wobei die jeweilige Grenzkonzentration (= niedrigste noch bakteriostatisch wirksame Konzentration) ermittelt wurde.
(§5) Als Testorganismen wurden benützt: • Staphylococcus aureus SG 511, Escherichia coli ATCC 11 775, Pseudomonas aeruginosa Hamburgensis und Pseudomonas; aeruginosa walter, Serratia marcescens ATCC 13 880, Klebsiella pneumoniae ATCC 10 031 und BC 6, Proteus mirabilis Hamburgensis, Proteus rettgeri, Enterobacter cloacae ATCC 13 047, E. coli R+TEM (ß-Lactamase-Träger).

[2] = test system: Escherichia coli ATCC 11 775; assay: as above; type: cell-based; conditions: liquid medium, 18 to 20 h at 37 °C, read-out: Minimale Hemmkonzentration E.coli ATCC 11775
Protocol: as §1, §2, §3, §4, §5

[3] = test system: Klebsiella pneumoniae ATCC 10 031; assay: as above; type: cell-based; conditions: liquid medium, 18 to 20 h at 37 °C, read-out: Minimale Hemmkonzentration Kl.pneum. ATCC 10031
Protocol: as §1, §2, §3, §4, §5

[4] = test system: Klebsiella pneumoniae BC 6; assay: as above; type: cell-based; conditions: BC6, liquid medium, 18 to 20 h at 37 °C, read-out: Minimale Hemmkonzentration Kl.pneum. BC 6
Protocol: as §1, §2, §3, §4, §5

[5] = test system: Pseudomonas aeruginosa walter; assay: as above; type: cell-based; conditions: liquid medium, 18 to 20 h at 37 °C, read-out: Minimale Hemmkonzentration Pseud.W.
Protocol: as §1, §2, §3, §4, §5

[6] = test system: Serratia marcescens ATCC 13 880; assay: as above; type: cell-based; conditions: liquid medium, 18 to 20 h at 37 °C, read-out: Minimale Hemmkonzentration Serr. marcesc. ATCC 13880
Protocol: as §1, §2, §3, §4, §5

Proteus rettgeri = assay: as above; type: cell-based; conditions: Providencia rettgeri; liquid medium, 18 to 20 h at 37 °C; read-out: Minimale Hemmkonzentration Prot. Rettg.
Protocol: as §1, §2, §3, §4, §5

[7] = test system: Enterobacter cloacae ATCC 13 047; assay: as above; type: cell-based; conditions: liquid medium, 18 to 20 h at 37 °C, read-out: Minimale Hemmkonzentration Ent. cloacae ATCC 13047
Protocol: as §1, §2, §3, §4, §5

[8] = test system: Proteus mirabilis Hamburgensis; assay: as above; type: cell-based; conditions: liquid medium, 18 to 20 h at 37 °C, read-out: Minimale Hemmkonzentration Prot. mirab. Hbg.
Protocol: as §1, §2, §3, §4, §5

[9] = test system: Staphylococcus aureus SG 511; assay: as above; type: cell-based; conditions: SG511, liquid medium, 18 to 20 h at 37 °C, read-out: Minimale Hemmkonzentration Staph. aureus SG 511
Protocol: as §1, §2, §3, §4, §5

[10] = test system: Pseudomonas aeruginosa Hamburgensis; assay: as above; type: cell-based; conditions: liquid medium, 18 to 20 h at 37 °C, read-out: Minimale Hemmkonzentration Pseud. Hbg.
Protocol: as §1, §2, §3, §4, §5

E. coli ATCC 11 775 = assay: In vivo activity, experimental intraperitoneal E. coli infection in mice; set-up: species or system Mäuse; conditions: Escherichia coli, ATCC11, sc, 168 h; female NMRI mice, i.p. E. coli infection, s.c. application once 1 h after infection, 7 days observation; dose at which 50 % of animals survive
Protocol: Eine Reihe von erfindungsgemäßen Verbindungen wurde in vivo bei experimentellen Infektionen an Mäusen untersucht. Man verwendete als pathogene Bakterien E. coli ATCC 11 775. Es wurde eine intraperitoneale Infektion mit 0,2 ml einer Bakteriensuspension (mit 5 % Mucin) gesetzt. Dies entspricht etwa 1,4 x 10^6 Keime E. coli/Maus. Weibliche Mäuse vom Stamm NMRI wurden in Gruppen von jeweils 10 Tieren aufgeteilt, zwei Gruppen blieben unbehandelt, die restlichen Gruppen wurden mit verschiedenen Dosen der jeweiligen erfindungsgemäßen Penicilline und Cephalosporine subcutan zur Bestimmung der ED50 (Dosis bei der 50 % der Tiere überleben) behandelt. Es wurde einmal eine Stunde: nach Setzen der Injektion therapiert.
Der Beobachtungszeitraum betrug in beiden Fällen 7 Tage. Die Ergebnisse dieser Teste mit repräsentativen Vertretern der erfindungsgemäßen Penicilline und Cephalosporine sind in der Tabelle 2 dargestellt.

| Compound | MIC [1] [µg/mL] | MIC [2] [µg/mL] | MIC [3] [µg/mL] | MIC [4] [µg/mL] | MIC [5] [µg/mL] | MIC [6] [µg/mL] | MIC (Proteus rettgeri) [µg/mL] | MIC [7] [µg/mL] | MIC [8] [µg/mL] | MIC [9] [µg/mL] | MIC [10] [µg/mL] | ED50 (E. coli ATCC 11 775) [mg/kg] |
| --- | --- | --- | --- | --- | --- | --- | --- | --- | --- | --- | --- | --- |
| CO/N=C(\C(=O)N[C@@H]1C(=O)N2C(C(=O)O)=C(COC(N)=O)CS[C@H]12)c1ccco1 [Cefuroxim, reference compound] | 4 (≈ 9.43 µM) | 8 (≈ 18.9 µM) | 2 (≈ 4.71 µM) | 4 (≈ 9.43 µM) | > 128 | 8 (≈ 18.9 µM) | 2 (≈ 4.71 µM) | 32 (≈ 75.4 µM) | 0.5 (≈ 1.18 µM) | 1 (≈ 2.36 µM) | > 128 | > 100 |
| CC(=O)Oc1ccc([C@@H](NC(=O)Nc2cnc(Nc3ccc(S(N)(=O)=O)cc3)nc2O)C(=O)N[C@@H]2C(=O)N3[C@@H]2SC(C)(C)[C@@H]3C(=O)O)cc1 [B, D-α-[3-(2-p-Aminosulfonylanilino-4-hydroxy-5-pyrimidinyl)-ureido]-p-methylcarbonyloxy-benzylpenicillin-Natrium] | > 64 | 0.25 (≈ 0.35 µM) | 4 (≈ 5.6 µM) | 2 (≈ 2.8 µM) | 2 (≈ 2.8 µM) | 0.5 (≈ 0.7 µM) | 2 (≈ 2.8 µM) | 2 (≈ 2.8 µM) | 0.12 (≈ 0.168 µM) | 0.5 (≈ 0.7 µM) | 4 (≈ 5.6 µM) | 4.5 |
| CC(=O)Oc1ccc([C@@H](NC(=O)Nc2cnc(Nc3ccc(S(N)(=O)=O)cc3)nc2O)C(=O)N[C@@H]2C(=O)N3C(C(=O)O)=C(CSc4nnnn4C)CS[C@H]23)cc1 [D, Natrium-7-{D-α-[3-(2-p-aminosulfonyl-anilino-4-hydroxy-5-pyrimidinyl)-ureido]-p-methylcarbonyloxy-phenylacetamido}-3-[(1-methyl-tetrazol-5-yl)-thiomethyl]-ceph-3-em-4-carboxylat] | 16 (≈ 19.4 µM) | 0.5 (≈ 0.605 µM) | 2 (≈ 2.42 µM) | 1 (≈ 1.21 µM) | 8 (≈ 9.68 µM) | 2 (≈ 2.42 µM) | 2 (≈ 2.42 µM) | 4 (≈ 4.84 µM) | 0.25 (≈ 0.302 µM) | 1 (≈ 1.21 µM) | 16 (≈ 19.4 µM) | 3 |
| CC1(C)S[C@@H]2[C@H](NC(=O)[C@H](NC(=O)N3CCNC3=O)c3ccccc3)C(=O)N2[C@H]1C(=O)O [Azlocillin, reference compound] | > 64 | 8 to 16 (≈ 17.3 to 34.7 µM) | 32 (≈ 69.3 µM) | 32 (≈ 69.3 µM) | 8 (≈ 17.3 µM) | 4 (≈ 8.67 µM) | 8 (≈ 17.3 µM) | 32 (≈ 69.3 µM) | 2 (≈ 4.33 µM) | 2 (≈ 4.33 µM) | 8 (≈ 17.3 µM) | > 100 |
| CCOC(=O)Oc1ccc([C@@H](NC(=O)Nc2cnc(Nc3ccc(S(N)(=O)=O)cc3)nc2O)C(=O)N[C@@H]2C(=O)N3[C@@H]2SC(C)(C)[C@@H]3C(=O)O)cc1 [A, D-α-[3-(2-p-Aminosulfonylanilino-4-hydroxy-5-pyrimidinyl)-ureido]-p-äthoxycarbonyloxy-benzylpenicillin-Natrium] | > 64 | 0.25 (≈ 0.336 µM) | 2 (≈ 2.69 µM) | 2 (≈ 2.69 µM) | 2 (≈ 2.69 µM) | 0.25 (≈ 0.336 µM) | 1 (≈ 1.34 µM) | 1 (≈ 1.34 µM) | 0.12 (≈ 0.161 µM) | 0.5 (≈ 0.671 µM) | 2 (≈ 2.69 µM) | 5.5 |
| CCOC(=O)Oc1ccc([C@@H](NC(=O)Nc2cnc(Nc3ccc(S(N)(=O)=O)cc3)nc2O)C(=O)N[C@@H]2C(=O)N3C(C(=O)O)=C(CSc4nnnn4C)CS[C@H]23)cc1 [C, Natrium-7-{D-α-[3-(2-p-aminosulfonylanilino-4-hydroxy-5-pyrimidinyl)-ureido]-p-äthoxy-carbonyloxy-phenylacetamido}-3-[(1-methyl-tetrazol-5-yl)-thiomethyl]-ceph-3-em-4-carboxylat] | 4 (≈ 4.67 µM) | 0.12 (≈ 0.14 µM) | 0.5 (≈ 0.584 µM) | 0.25 (≈ 0.292 µM) | 4 (≈ 4.67 µM) | 0.25 (≈ 0.292 µM) | 1 (≈ 1.17 µM) | 0.5 (≈ 0.584 µM) | 0.12 (≈ 0.14 µM) | 1 (≈ 1.17 µM) | 8 (≈ 9.34 µM) | 0.6 |

Reference: patent EP0044992A1, “Lactams, process for their preparation and pharmaceutical compositions containing them” (Dr. Karl Thomae GmbH, priority 1980, dated 1982)
